Experiment [1] concerns AHAS of S653(At)N mutant in AHASL1B. Nature of the experiment: AHAS assay on extracts of S653(At)N mutants. Format: biochemical, Triticum aestivum. An excerpt: (§1) The deletions, insertions, and substitutions of the protein sequences encompassed herein are not expected to produce radical changes in the characteristics of the protein. However, when it is difficult to predict the exact effect of the substitution, deletion, or insertion in advance of doing so, one skilled in the art will appreciate that the effect will be evaluated by routine screening assays. That is, AHASL function can be evaluated by AHAS enzyme activity assays in the presence and absence of an imidazolinone herbicide. See, for example, Singh et al. ((1988) Anal. Biochem. 171:173-179), herein incorporated by reference.
(§2) To obtain an understanding of the effect of each mutation on the level of enzyme sensitivity to the herbicides, AHAS assays were performed on S653(At)N mutants in all three genes using individuals from several backgrounds (representative data in FIG. 6A). […] Also, a double mutant between 1A and 1D retained 63% of AHAS activity (Pozniak et al. submitted). […] In durum wheat (T. turgidum) each homeolog appears to contribute equally to the AHAS pool (FIG. 6B).

For experiment [2], the system named is AHAS of S653(At)N mutant in AHASL1D. Nature of the experiment: AHAS assay on extracts of S653(At)N mutants. It counts as biochemical, Triticum aestivum.
From the text: as §1, §2

Experiment [3] has as its system AHAS of double mutant between 1A and 1D. As to conditions: herbicide not restated, follows the 100 μM imazethapyr sentence; cited from earlier work.
Experiment [4] deals with AHAS of S653(At)N mutant in AHASL1A. The experiment can be described thus: AHAS assay on extracts of S653(At)N mutants. It counts as biochemical, Triticum aestivum. As to conditions: 100 μM imazapyr, several backgrounds.
From the text: as §1, §2

Experiment [5] relates to wheat lines with S653(At)N mutation in AHASL1B. Nature of the experiment: herbicide spray assay, greenhouse-grown mutagenized wheat lines. Format: in vivo, Triticum aestivum. As to conditions: 0-9 rating scale (0=no injury; 9=highest injury); after spraying with imazamox; mutation in 1B. As to the method:
(§3) The most common mutation observed in wheat results in a Ser to Asn substitution at the position equivalent to Ser653 in Arabidopsis (termed S653(At)N). Typically, 24 individuals from each mutagenized line were scored on a 0-9 rating scale (0=no injury; 9=highest injury) after spraying with a rate of imazamox sufficient for detecting differences in the greenhouse-grown plants (FIG. 4). For each line, the specific gene mutated was determined. A clear correlation was found between the ratings from herbicide spray assays and the specific homoeolog that was mutated at this position.

In experiment [6] the test system is wheat lines with S653(At)N mutation in AHASL1A. The experiment is described as above. It counts as in vivo, Triticum aestivum. As to conditions: 0-9 rating scale (0=no injury; 9=highest injury); after spraying with imazamox; mutation in 1A. As to the method:
as §3

Experiment [7] concerns wheat lines with S653(At)N mutation in AHASL1D. The description is as above. It counts as in vivo, Triticum aestivum. To be noted: 0-9 rating scale (0=no injury; 9=highest injury), after spraying with imazamox. Here is the method:
as §3

On to `CCc1cnc(C2=NC(C)(C(C)C)C(=O)N2)c(C(=O)O)c1` (stereo not drawn) [imazethapyr], for which the “AHAS activity in the presence of herbicide” value in experiment [1] (100 μM imazethapyr, AHAS1B mutant extract, CDC Teal background) amounted to 30%; in experiment [2] (100 μM imazethapyr, AHAS1D mutant extract, CDC Teal background) it was 40%. Further, the AHAS activity retained in experiment [3] is 63%.

On to `CC(C)C1(C)N=C(c2ncccc2C(=O)O)NC1=O` (stereo not drawn) [imazapyr], for which the “AHAS activity in the presence of herbicide” value in experiment [1] (100 μM imazapyr, AHASL1B S653(At)N mutant, several backgrounds) worked out at 25%; in experiment [4] it was 33%. Further, the “AHAS activity in the presence of herbicide (level of insensitivity)” value in experiment [2] (100 μM imazapyr, AHASL1D S653(At)N mutant, several backgrounds) is reported as 38%.

As to `COCc1cnc(C2=NC(C)(C(C)C)C(=O)N2)c(C(=O)O)c1` (stereo not drawn) [imazamox], the median injury in experiment [5] was determined as 5.4; in experiment [6], 6.4; in experiment [7] it was 4.0.
